# Where two headings read alike, the source gives them in different places.
# Experiments:
# [1] = system: C. albicans; assay: Antifungal susceptibility; type: cell-based, Candida albicans
# [2] = system: C. parapsilosis; assay: Antifungal susceptibility; type: cell-based, Candida parapsilosis
# [3] = system: Shigella spp.; assay: Disk diffusion, stool isolates Tehran; type: cell-based; conditions: 96 isolates
# [4] = system: biofilms of S. aureus (SA204 and SA195) and S. epidermidis (ATCC35983 and ATCC35984); assay: Antibiotic lock, in vitro biofilm on polyurethane film, viable counts; type: cell-based, Staphylococcus species; conditions: any of the time intervals examined
# [5] = system: MSSA; assay: Agar dilution MIC; type: cell-based, Staphylococcus aureus
# [6] = system: Pseudomonas aeruginosa (PSA); assay: Vitek 2 susceptibility, urine isolates of children; type: cell-based; conditions: both departments
# [7] = system: viridans group streptococci (VGS); assay: MIC; type: cell-based
# [8] = system: nontyphoidal Salmonella; assay: Agar dilution, isolates from chickens 1998–2004; type: cell-based, Salmonella spp.
# [9] = system: Acinetobacter; assay: Disk diffusion; type: cell-based; conditions: 37 isolates selected as resistant to beta-lactams
# [10] = system: Escherichia coli O157:H7; assay: Kirby-Bauer susceptibility; type: cell-based; conditions: 30 strains, 1990–2003
# [11] = system: H. influenzae; assay: Broth microdilution; type: cell-based, Haemophilus influenzae; conditions: 267 isolates
# [12] = system: S. pneumoniae; assay: Broth microdilution; type: cell-based, Streptococcus pneumoniae; conditions: 275 isolates
# [13] = system: Pseudomonas aeruginosa; assay: MIC, strains from cystic fibrosis patients; conditions: by MIC
# [14] = system: Escherichia coli
# [15] = system: Salmonella spp.; assay: Agar dilution susceptibility, gastroenteritis isolates Cuba; type: cell-based; conditions: 34 strains, 2002
# [16] = system: Salmonella serotype Enteritidis; assay: Disk diffusion, food isolates Spain; type: cell-based; conditions: n = 96
# [17] = system: Salmonella serotype Typhimurium; assay: Disk diffusion, food isolates Spain; type: cell-based; conditions: n = 53
# [18] = system: Salmonella, other 49 serotypes; assay: Disk diffusion, food isolates Spain; type: cell-based; conditions: n = 115
# [19] = system: N.gonorrhoeae; assay: microbe, parasite or virus in culture; type: cell-based; conditions: Neisseria gonorrhoeae
# [20] = system: S. pneumoniae (SPN); assay: SENTRY Brazil, NCCLS broth microdilution; type: cell-based, Streptococcus pneumoniae
# [21] = system: H. influenzae (HI); assay: SENTRY Brazil, NCCLS broth microdilution; type: cell-based, Haemophilus influenzae
# [22] = system: S. pneumoniae; assay: E-test MIC, children with URTI, Brazil; type: cell-based, Streptococcus pneumoniae
# [23] = system: Nocardia spp.; assay: E-test on Mueller Hinton agar, 81 clinical isolates; type: cell-based; conditions: Nocardia
# [24] = system: S. pneumoniae; assay: PROTEKT Italy, NCCLS microdilution; type: cell-based, Streptococcus pneumoniae
# [25] = system: S. -pneumoniae; assay: Sensitivity of CAP pathogens with/without antibiotic pretreatment; type: cell-based, Streptococcus pneumoniae
# [26] = system: S. pyogenes; assay: as above; type: cell-based, Streptococcus pyogenes; conditions: Abs. 4
# [27] = system: H. influenzae; assay: as above; type: cell-based, Haemophilus influenzae
# [28] = system: Other Haemophilus sp.; assay: as above; type: cell-based
# [29] = system: E. coli; assay: as above; type: cell-based, Escherichia coli
# [30] = system: Kl. pneumoniae; assay: as above; type: cell-based, Klebsiella pneumoniae
# [31] = system: Other Enterobacteriacae; assay: as above; type: cell-based, Enterobacteriaceae
# [32] = system: P. aeruginosa; assay: as above; type: cell-based, Pseudomonas aeruginosa; conditions: Abs. 3
# [33] = system: Other non-fermenting bacteria; assay: as above; type: cell-based
# [34] = system: Enterococcus sp; assay: as above; type: cell-based
# [35] = system: S. aureus; assay: as above; type: cell-based, Staphylococcus aureus
# [36] = system: Staph. coaq (−); assay: as above; type: cell-based, coagulase-negative Staphylococcus
# [37] = system: Total pathogens in community acquired pneumonia; assay: as above; type: cell-based
# [38] = system: pathogens in community acquired pneumonia of different severity; assay: Sensitivity of CAP pathogens by Fine severity group; type: cell-based
# [39] = Belgian collection (caecal samples; Belgium, France, Netherlands)
molecule,measurement,setting,value
Clc1ccc(COC(Cn2ccnc2)c2ccc(Cl)cc2Cl)c(Cl)c1 (stereo not drawn) [miconazole],susceptibility of all tested strains,[1],susceptible
same,resistant and intermediate susceptibility,[2],50%
C[C@@H]1[C@H](O)[C@@H](C)/C=C/C=C/C=C/C=C/C=C/C=C/C=C/[C@H](O[C@@H]2O[C@H](C)[C@@H](O)[C@H](N)[C@@H]2O)C[C@@H]2O[C@](O)(C[C@@H](O)C[C@@H](O)[C@H](O)CC[C@@H](O)C[C@@H](O)CC(=O)O[C@H]1C)C[C@H](O)[C@H]2C(=O)O [amphotericin B],susceptibility of all tested strains,[1],susceptible
same,resistant,[2],10%
Cc1nnc(SCC2=C(C(=O)O)N3C(=O)[C@@H](NC(=O)Cn4cnnn4)[C@H]3SC2)s1 [cefazolin],sensitive,[3],80%
same,significant biofilm killing,[4],not achieved
same,MIC50,"[5]; Staphylococcus aureus, MSSA",< 0.5 µg/mL
same,MIC90,"[5]; Staphylococcus aureus, MSSA",< 1 µg/mL
same,MIC range,[5]; n = 200,250 to 1000 µg/mL
"NCC[C@H](O)C(=O)N[C@@H]1C[C@H](N)[C@@H](O[C@H]2O[C@H](CN)[C@@H](O)[C@H](O)[C@H]2O)[C@H](O)[C@H]1O[C@H]1O[C@H](CO)[C@@H](O)[C@H](N)[C@H]1O [AM, amikacin]",Susceptible isolates,[6],74-100%
same,MIC50,[7],0.12 µg/mL
same,MIC90,[7],1 µg/mL
same,resistance,[8]; [39],46%
same,resistance,[8]; Germany (carcass meat),16%
CC1(C)S[C@@H]2[C@H](NC(=O)[C@H](C(=O)O)c3ccsc3)C(=O)N2[C@H]1C(=O)O [ticarcillin],Susceptible isolates,[6],74-100%
same,resistant isolates,[9],86.5%
NC[C@H]1O[C@H](O[C@H]2[C@H](O)[C@@H](O[C@H]3O[C@H](CO)[C@@H](O)[C@H](N)[C@H]3O)[C@H](N)C[C@@H]2N)[C@H](O)[C@@H](O)[C@@H]1O [kanamycin],resistant strains,[10],3.3%
N[C@@H](C(=O)N[C@@H]1C(=O)N2C(C(=O)O)=C(Cl)CS[C@H]12)c1ccccc1 [cefaclor],susceptible,[11],92.1%
same,Susceptibility,[12],82.5%
CC=CC1=C(C(=O)O)N2C(=O)[C@@H](NC(=O)[C@H](N)c3ccc(O)cc3)[C@H]2SC1 [cefprozil],susceptible,[11],93.3%
same,Susceptibility,[12],87.3%
colistin methanesulfonate,Susceptible isolates,[13],98%
COc1cc(Cc2cnc(N)nc2N)cc(OC)c1OC [trimethoprim],resistance,"[14]; 1993, E.coli resistant to ampicillin",28%
same,resistance,"[14]; 1993, E.coli sensitive to ampicillin",3%
same,resistance,"[14]; 2003, E.coli resistant to ampicillin",43%
same,resistance,"[14]; 2003, E.coli sensitive to ampicillin",4%
Clc1ccc(COC(Cn2ccnc2)c2ccc(Cl)cc2Cl)cc1 (stereo not drawn) [econazole],intermediate susceptibility,[1],2%
same,resistant and intermediate susceptibility,[2],63%
C[C@@H]1[C@H](O)[C@@H](C)/C=C/C=C/CC/C=C/C=C/C=C/C=C/C(O[C@H]2O[C@H](C)[C@@H](O)[C@H](N)[C@@H]2O)CC2O[C@](O)(CC(O)C(O)CCC(O)CC(O)CC(O)CC(=O)O[C@H]1C)CC(O)C2C(=O)O (stereo partly drawn) [nystatin],intermediate susceptibility,[1],2%
same,resistance,[1],2%
same,resistant,[2],10%
CN[C@@H]1[C@H](O)[C@H](NC)[C@H]2O[C@@]3(O)C(=O)C[C@@H](C)O[C@H]3O[C@@H]2[C@H]1O [spectinomycin],resistance,[15],50%
same,resistance rate (NCCLS M100-S13),[16],99%
same,resistance rate (NCCLS M100-S13),[17],87%
same,resistance rate (NCCLS M100-S13),[18],100%
same,MIC,[19],16 µg/mL
same,MIC,[19]; strain 76mu6,16 µg/mL
same,MIC,[19]; strain 76mu10,8 µg/mL
same,MIC,[19]; strain 92mu6,8 µg/mL
same,MIC,[19]; strain 92mu13,4 µg/mL
O=C(N[C@H](CO)[C@H](O)c1ccc([N+](=O)[O-])cc1)C(Cl)Cl [chloramphenicol],resistance,[15],41%
same,resistant strains,[10],6%
same,% S,[20]; 1998,99%
same,% S,[20]; 1999,98%
same,% S,[20]; 2000,99%
same,% S,[20]; 2001,100%
same,% S,[20]; 2002,99%
same,% S,[20]; 2003,100%
same,% S,[21]; 1998,96%
same,% S,[21]; 1999,99%
same,% S,[21]; 2000,97%
same,% S,[21]; 2001,95%
same,% S,[21]; 2002,93%
same,% S,[21]; 2003,96%
same,resistant isolates,[9],100.0%
same,resistance,[8]; [39],8%
same,resistance,[8]; Germany (carcass meat),4%
CC1(C)S[C@@H]2[C@H](NC(=O)[C@H](N)c3ccc(O)cc3)C(=O)N2[C@H]1C(=O)O [amoxicillin],resistant (R),[22]; 137 isolates,0.7%
same,MIC,"[22]; Streptococcus pneumoniae, read-out: MIC of the one resistant isolate",3 µg/mL
same,MIC50,[23],12 µg/mL
same,MIC90,[23],32 µg/mL
same,susceptible,[24]; year 1: 2002,93.8%
same,susceptible,[24]; year 2: 2003,96.6%
same,% of sensitive strains,"[25]; after antibiotic pretreatment, Abs. 3",66.7%
same,% of sensitive strains,"[25]; without antibiotic pretreatment, Abs. 13",92.3%
same,% of sensitive strains,[26]; after pretreatment,75.0%
same,% of sensitive strains,[26]; without pretreatment,100.0%
same,% of sensitive strains,"[27]; after pretreatment, Abs. 10",80.0%
same,% of sensitive strains,"[27]; without pretreatment, Abs. 26",88.5%
same,% of sensitive strains,"[28]; after pretreatment, Abs. 11",90.9%
same,% of sensitive strains,"[28]; without pretreatment, Abs. 21",90.5%
same,% of sensitive strains,"[29]; after pretreatment, Abs. 1",100.0%
same,% of sensitive strains,"[29]; without pretreatment, Abs. 5",60.0%
same,% of sensitive strains,"[30]; after pretreatment, Abs. 5",0.0%
same,% of sensitive strains,"[30]; without pretreatment, Abs. 4",0.0%
same,% of sensitive strains,"[31]; after pretreatment, Abs. 5",20.0%
same,% of sensitive strains,"[31]; without pretreatment, Abs. 2",50.0%
same,% of sensitive strains,[32]; after pretreatment,0.0%
same,% of sensitive strains,[32]; without pretreatment,0.0%
same,% of sensitive strains,"[33]; after pretreatment, Abs. 0",0.0%
same,% of sensitive strains,"[33]; without pretreatment, Abs. 1",0.0%
same,% of sensitive strains,"[34]; after pretreatment, Abs. 0",0.0%
same,% of sensitive strains,"[34]; without pretreatment, Abs. 1",100.0%
same,% of sensitive strains,"[35]; after pretreatment, Abs. 4",0.0%
same,% of sensitive strains,"[35]; without pretreatment, Abs. 11",9.1%
same,% of sensitive strains,"[36]; after pretreatment, Abs. 2",50.0%
same,% of sensitive strains,"[36]; without pretreatment, Abs. 4",50.0%
same,% of sensitive strains,"[37]; after pretreatment, Abs. 48",54.2%
same,% of sensitive strains,"[37]; without pretreatment, Abs. 95",69.5%
same,"sensitivity, total strains",[38]; higher severity group (Fine scores >70),"55,8%"
same,"sensitivity, total strains",[38]; lower severity group (Fine scores <70),64.8%
same,Susceptibility,[12],99.3%
CCOc1ccc2ccccc2c1C(=O)N[C@@H]1C(=O)N2[C@@H]1SC(C)(C)[C@@H]2C(=O)O [nafcillin],significant biofilm killing,[4],not achieved

# From paper PMC7129073 (Clinical Microbiology and Infection, 2015)
